# According to patent publication US20210094933A1, “RAPAFUCIN DERIVATIVE COMPOUNDS AND METHODS OF USE THEREOF” (The Johns Hopkins University, priority 2019, published 2021):
# Numbered stars: 1 amine (or outer) side, 2 acyl side, 3 side chain; on linkers, the order of the positions; unused ones are H or OH. Square brackets hold non-standard residues; d marks the D form. Side chains are listed from the residue outwards. Peptide text beside a SMILES is read from it. * marks the point of attachment. X1 = COc1ccc(CC[C@@H](N[*:1])c2cccc(OCC(=O)[*:2])c2)cc1OC; X2 = CN(CCC=CC(=O)OCC(C)(C)C(=O)C(=O)[*:2])[*:1]; Pip = O=C(O)[C@@H]1CCCCN1; Morpholide = C1CN(*)CCO1; CO = O=C([*:1])[*:2]; Sar = CNCC(=O)O
# Tests used:
# Format in all cases: cell-based
# H929 = test: Cell proliferation assay (Prolif.), IC50 relative to DMSO control; conditions: H929 cells; class relative to DMSO control
# Experimental: (§1) Cell Proliferation Assay (Prolif.) Guo et al. (2018) Nat. Chem. 11:254-63. Specific cell lines are indicated in each assay and cultured in complete growth media. Activity is scored according to the IC50 values relative to DMSO control. “Low” indicates an IC50 greater than 600 nM, “Medium” indicates an IC50 between 300 nM and 600 nM “High” indicates an IC50 less than 300 nM. “Rel.Uptake” refers to uptake activity characterization relative to a single concentration assay. “Low” indicates a response greater than 0.6 times the activity relative to DMSO, “Medium” indicates a response between 0.6 and 0.3 times the activity relative to DMSO, “High” indicates a response less than 0.3 times the activity relative to DMSO.
# [1] = Cell proliferation assay, single concentration, response relative to DMSO; cell line indicated in each table; conditions: NCI-H929 cells
# Experimental: as §1
# 293T = test: Nucleoside uptake assay (3H-Thymidine), IC50 relative to DMSO control; conditions: 3H-Thymidine uptake, 293T cells, IC50 class relative to DMSO control
# Experimental: (§2) Nucleoside Uptake Assay (uptake). Nuceloside uptake assays were performed with using 3H-Thymidine as described in Guo et al. (2018) Nat. Chem, 11:254-63. Specific cell lines are indicated in each assay and cultured in complete growth media. Activity is scored according to the IC50 values relative to DMSO control. “Low” indicates an IC50 greater than 600 nM, “Medium” indicates an IC50 between 300 nM and 600 nM “High” indicates an IC50 less than 300 nM. “Rel.Uptake” refers to uptake activity characterization relative to a single concentration assay. “Low” indicates a response greater than 0.6 times the activity relative to DMSO, “Medium” indicates a response between 0.6 and 0.3 times the activity relative to DMSO, “High” indicates a response less than 0.3 times the activity relative to DMSO.
# [2] = Nucleoside uptake assay, single concentration (Rel.Uptake), response relative to DMSO; cell line indicated in each table
# Experimental: as §2
# [3] = nucleoside uptake, single concentration, 293T cells
# [4] = 293 T cells, single concentration
# [5] = 293 T cells, nucleoside uptake at single concentration
SMILES,"Uptake, 293T (293T)","Rel. Uptake, 293 T [2, 5]",further results
COc1ccc(CC[C@H]2OC(=O)[C@@H]3CCCCN3C(=O)C(=O)C(C)(C)COC(=O)C=CCCN(C)C(=O)[C@@H](Cc3ccccc3)NC(=O)CN(C)C(=O)[C@@H](Cc3ccccc3)NC(=O)[C@H](Cc3ccc(OC(=O)N4CCOCC4)cc3)N(C)C(=O)CCC(=O)Nc3cccc2c3)cc1OC [Compound 869],–,–,"Prolif. H929 (H929): high; Rel. Prolif., NCI-H929 [1]: low"
COc1ccc(CC[C@H]2NC(=O)[C@@H]3CCCCN3C(=O)C(=O)C(C)(C)COC(=O)C=CCCN(C)C(=O)[C@@H](Cc3ccccc3)NC(=O)CN(C)C(=O)[C@@H](Cc3ccccc3)NC(=O)[C@H](Cc3ccc(OC(=O)N4CCOCC4)cc3)NC(=O)COc3cccc2c3)cc1OC [Compound 877] (cyclo([Pip][X1]Y([CO-Morpholide])[dF][Sar][dF][X2])),–,–,"Prolif. H929 (H929): low; Rel. Prolif., NCI-H929 [1]: low"
COc1ccc(CC[C@H]2OC(=O)[C@@H]3CCCCN3C(=O)C(=O)C(C)(C)COC(=O)C=CCCN(C)C(=O)[C@H](CC(C)C)N(C)C(=O)[C@H]3CCCN3C(=O)[C@H](CC(=O)OC(C)(C)C)N(C)C(=O)C(c3ccccc3)NC(=O)CCC(=O)Nc3cccc2c3)cc1OC (stereo partly shown) [Compound 1066],high,–,"Rel. Uptake, 293 T [2, 3]: high"
COc1ccc(CC[C@H]2OC(=O)[C@@H]3CCCCN3C(=O)C(=O)C(C)(C)COC(=O)C=CCCN(C)C(=O)[C@H](CC(C)C)N(C)C(=O)[C@H]3CCCN3C(=O)[C@H](Cc3ccc(CC(=O)OC(C)(C)C)cc3)NC(=O)C(c3ccccc3)NC(=O)CCC(=O)Nc3cccc2c3)cc1OC (stereo partly shown) [Compound 1081],medium,–,"Rel. Uptake, 293 T [2, 3]: medium"
COc1ccc(CC[C@H]2OC(=O)[C@@H]3CCCCN3C(=O)C(=O)C(C)(C)COC(=O)C=CCCN(C)C(=O)[C@H](CC(C)C)N(C)C(=O)[C@H]3CCCN3C(=O)[C@H](Cc3ccc(OCc4ccccc4)cc3)NC(=O)C(c3ccccc3)NC(=O)CCC(=O)Nc3cccc2c3)cc1OC (stereo partly shown) [Compound 1082],low,–,"Rel. Uptake, 293 T [2, 3]: low"
COc1ccc(CC[C@H]2OC(=O)[C@@H]3CCCCN3C(=O)C(=O)C(C)(C)COC(=O)C=CCCN(C)C(=O)[C@H](CC(C)C)N(C)C(=O)[C@H]3CCCN3C(=O)[C@H]3C[C@@H](NC(=O)OC(C)(C)C)CN3C(=O)C(c3ccccc3)NC(=O)CCC(=O)Nc3cccc2c3)cc1OC (stereo partly shown) [Compound 1087],low,–,"Rel. Uptake, 293 T [2, 4]: low"
COc1ccc(CC[C@H]2OC(=O)[C@@H]3CCCCN3C(=O)C(=O)C(C)(C)COC(=O)C=CCCN(C)C(=O)[C@H](CC(C)C)N(C)C(=O)[C@H]3CCCN3C(=O)[C@H](Cc3ccccc3)N(C)C(=O)[C@H](CC(=O)OC(C)(C)C)NC(=O)CCC(=O)Nc3cccc2c3)cc1OC [Compound 1088],low,–,"Rel. Uptake, 293 T [2, 4]: low"
COc1ccc(CC[C@H]2OC(=O)[C@@H]3CCCCN3C(=O)C(=O)C(C)(C)COC(=O)C=CCCN(C)C(=O)[C@@H](c3ccccc3)NC(=O)[C@H](Cc3ccc(OP(C)(C)=O)cc3)NC(=O)[C@H]3CCCN3C(=O)[C@H](CC(C)C)N(C)C(=O)COc3cccc2c3)cc1OC [Compound 1520],low,low,–
COc1ccc(CC[C@H]2OC(=O)[C@@H]3CCCCN3C(=O)C(=O)C(C)(C)COC(=O)C=CCCN(C)C(=O)[C@H](CC(C)C)N(C)C(=O)[C@H]3CCCN3C(=O)[C@H](Cc3ccc(O)cc3)NC(=O)C(c3ccccc3)NC(=O)CCC(=O)Nc3cccc2c3)cc1OC (stereo partly shown) [Compound 1522],high,high,–
COc1ccc(CC[C@H]2OC(=O)[C@@H]3CCCCN3C(=O)C(=O)C(C)(C)CNC(=O)C=CCCN(C)C(=O)[C@H](CC(C)C)N(C)C(=O)[C@H]3CCCN3C(=O)[C@H](Cc3ccccc3)N(C)C(=O)C(c3ccccc3)NC(=O)CCC(=O)Nc3cccc2c3)cc1OC (stereo partly shown) [Compound 1555],high,high,–
COc1ccc(CC[C@H]2OC(=O)[C@@H]3CCCCN3C(=O)C(=O)C(C)(C)COC(=O)C=CCCN(C)NC(c3ccccc3)C(=O)N(C)[C@@H](Cc3ccccc3)C(=O)N3CCC[C@@H]3C(=O)N(C)[C@@H](CC(C)C)C(=O)C(=O)CCOc3cccc2c3)cc1OC (stereo partly shown) [Compound 1556],low,low,–
